Where two headings read alike, the source gives them in different places.
What was measured:
Experiment in all cases: selectivity profiling in a panel of 340 wild-type kinases (Reaction Biology Europe)
Assay type in all cases: binding
340 wild-type kinases [1] = biological target: T1, 340 wild-type kinases (Homo sapiens, UniProt P06493)
T1 construct: purchased Reaction Biology Europe

340 wild-type kinases [2] = biological target: T2, 340 wild-type kinases (Homo sapiens, UniProt P06241)
T2 construct: purchased Reaction Biology Europe

340 wild-type kinases [3] = biological target: T3, 340 wild-type kinases (Homo sapiens, UniProt Q86UE8)
T3 construct: purchased Reaction Biology Europe

340 wild-type kinases [4] = biological target: T4, 340 wild-type kinases (Homo sapiens, UniProt Q96PY6)
T4 construct: purchased Reaction Biology Europe
T4 sequence (Q96PY6 1-1258): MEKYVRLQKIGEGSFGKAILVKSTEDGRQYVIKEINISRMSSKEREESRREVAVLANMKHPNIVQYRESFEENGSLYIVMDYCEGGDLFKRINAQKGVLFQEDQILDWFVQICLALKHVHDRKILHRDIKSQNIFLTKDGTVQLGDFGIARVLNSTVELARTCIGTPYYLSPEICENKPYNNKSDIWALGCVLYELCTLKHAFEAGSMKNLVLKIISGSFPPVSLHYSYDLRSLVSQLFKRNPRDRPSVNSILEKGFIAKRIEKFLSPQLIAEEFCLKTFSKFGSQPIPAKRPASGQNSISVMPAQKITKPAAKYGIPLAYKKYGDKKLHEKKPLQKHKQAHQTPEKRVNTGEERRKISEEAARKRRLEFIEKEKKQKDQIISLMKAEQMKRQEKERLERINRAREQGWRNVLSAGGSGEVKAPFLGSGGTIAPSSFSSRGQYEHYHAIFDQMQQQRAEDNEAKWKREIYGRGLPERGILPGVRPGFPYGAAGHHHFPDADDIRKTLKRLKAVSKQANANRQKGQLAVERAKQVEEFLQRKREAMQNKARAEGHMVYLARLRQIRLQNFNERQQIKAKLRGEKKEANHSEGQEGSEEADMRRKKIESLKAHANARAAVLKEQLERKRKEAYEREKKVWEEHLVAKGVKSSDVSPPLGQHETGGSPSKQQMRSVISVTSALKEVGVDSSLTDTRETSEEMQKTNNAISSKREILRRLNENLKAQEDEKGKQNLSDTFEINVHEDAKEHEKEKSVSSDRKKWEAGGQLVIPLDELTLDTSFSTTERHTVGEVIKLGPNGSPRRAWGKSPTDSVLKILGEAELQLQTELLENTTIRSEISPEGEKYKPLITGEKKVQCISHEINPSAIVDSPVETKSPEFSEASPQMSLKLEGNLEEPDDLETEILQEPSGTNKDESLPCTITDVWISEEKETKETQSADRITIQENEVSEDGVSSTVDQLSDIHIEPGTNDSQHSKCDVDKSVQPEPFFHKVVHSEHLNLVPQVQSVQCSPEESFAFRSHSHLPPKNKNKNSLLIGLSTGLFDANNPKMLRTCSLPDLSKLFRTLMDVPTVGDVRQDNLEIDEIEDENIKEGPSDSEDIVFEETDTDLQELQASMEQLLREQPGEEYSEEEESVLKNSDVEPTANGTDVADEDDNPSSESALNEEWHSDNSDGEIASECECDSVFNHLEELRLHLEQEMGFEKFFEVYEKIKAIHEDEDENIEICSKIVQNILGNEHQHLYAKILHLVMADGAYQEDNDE

340 wild-type kinases [5] = biological target: T5, 340 wild-type kinases (Homo sapiens, UniProt O15146)
T5 construct: purchased Reaction Biology Europe
T5 sequence (O15146 24-869): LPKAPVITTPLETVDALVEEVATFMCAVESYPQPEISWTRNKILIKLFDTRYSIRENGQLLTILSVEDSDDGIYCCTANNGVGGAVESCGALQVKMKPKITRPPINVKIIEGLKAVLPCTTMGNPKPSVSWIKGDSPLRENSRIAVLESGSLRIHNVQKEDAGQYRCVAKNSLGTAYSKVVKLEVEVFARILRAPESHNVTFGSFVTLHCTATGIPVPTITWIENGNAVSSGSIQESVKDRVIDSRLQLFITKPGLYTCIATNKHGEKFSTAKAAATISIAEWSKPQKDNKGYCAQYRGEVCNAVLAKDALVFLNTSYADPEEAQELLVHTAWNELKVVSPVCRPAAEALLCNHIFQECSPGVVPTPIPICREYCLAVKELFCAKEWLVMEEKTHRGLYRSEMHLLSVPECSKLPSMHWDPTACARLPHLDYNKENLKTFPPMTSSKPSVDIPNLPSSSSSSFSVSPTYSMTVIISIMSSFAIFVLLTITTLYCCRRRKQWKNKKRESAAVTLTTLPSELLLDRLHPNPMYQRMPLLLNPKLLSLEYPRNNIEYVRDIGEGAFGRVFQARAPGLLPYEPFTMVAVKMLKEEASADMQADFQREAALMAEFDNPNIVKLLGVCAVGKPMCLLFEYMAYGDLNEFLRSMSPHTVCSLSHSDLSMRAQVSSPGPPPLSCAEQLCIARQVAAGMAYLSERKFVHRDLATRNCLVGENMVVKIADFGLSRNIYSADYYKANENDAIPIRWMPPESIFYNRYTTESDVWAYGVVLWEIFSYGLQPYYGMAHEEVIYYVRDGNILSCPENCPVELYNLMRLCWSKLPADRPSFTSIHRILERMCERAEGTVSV

340 wild-type kinases [6] = biological target: T6, 340 wild-type kinases (Homo sapiens, UniProt P53671)
T6 construct: purchased Reaction Biology Europe

340 wild-type kinases [7] = biological target: T7, 340 wild-type kinases (Homo sapiens, UniProt P48729)
T7 construct: purchased Reaction Biology Europe
T7 sequence (P48729 whole entry): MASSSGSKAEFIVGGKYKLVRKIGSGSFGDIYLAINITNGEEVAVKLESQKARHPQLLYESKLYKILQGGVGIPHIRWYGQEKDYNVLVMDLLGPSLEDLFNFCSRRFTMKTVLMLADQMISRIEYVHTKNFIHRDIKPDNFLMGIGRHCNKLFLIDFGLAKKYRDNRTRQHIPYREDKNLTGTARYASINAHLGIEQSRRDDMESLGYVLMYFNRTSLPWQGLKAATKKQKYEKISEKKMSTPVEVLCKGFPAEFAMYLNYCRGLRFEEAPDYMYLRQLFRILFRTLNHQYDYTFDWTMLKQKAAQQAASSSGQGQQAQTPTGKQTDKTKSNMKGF

T1 sequence (P06493 whole entry): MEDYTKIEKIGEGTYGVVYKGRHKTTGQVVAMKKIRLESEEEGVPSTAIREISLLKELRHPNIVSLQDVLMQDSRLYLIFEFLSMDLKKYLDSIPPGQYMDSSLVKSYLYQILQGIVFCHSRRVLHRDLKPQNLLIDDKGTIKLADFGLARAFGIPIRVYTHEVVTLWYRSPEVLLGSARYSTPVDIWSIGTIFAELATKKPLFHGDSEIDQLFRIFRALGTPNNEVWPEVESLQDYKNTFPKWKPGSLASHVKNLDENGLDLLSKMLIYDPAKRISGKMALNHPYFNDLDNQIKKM
T3 sequence (Q86UE8 whole entry): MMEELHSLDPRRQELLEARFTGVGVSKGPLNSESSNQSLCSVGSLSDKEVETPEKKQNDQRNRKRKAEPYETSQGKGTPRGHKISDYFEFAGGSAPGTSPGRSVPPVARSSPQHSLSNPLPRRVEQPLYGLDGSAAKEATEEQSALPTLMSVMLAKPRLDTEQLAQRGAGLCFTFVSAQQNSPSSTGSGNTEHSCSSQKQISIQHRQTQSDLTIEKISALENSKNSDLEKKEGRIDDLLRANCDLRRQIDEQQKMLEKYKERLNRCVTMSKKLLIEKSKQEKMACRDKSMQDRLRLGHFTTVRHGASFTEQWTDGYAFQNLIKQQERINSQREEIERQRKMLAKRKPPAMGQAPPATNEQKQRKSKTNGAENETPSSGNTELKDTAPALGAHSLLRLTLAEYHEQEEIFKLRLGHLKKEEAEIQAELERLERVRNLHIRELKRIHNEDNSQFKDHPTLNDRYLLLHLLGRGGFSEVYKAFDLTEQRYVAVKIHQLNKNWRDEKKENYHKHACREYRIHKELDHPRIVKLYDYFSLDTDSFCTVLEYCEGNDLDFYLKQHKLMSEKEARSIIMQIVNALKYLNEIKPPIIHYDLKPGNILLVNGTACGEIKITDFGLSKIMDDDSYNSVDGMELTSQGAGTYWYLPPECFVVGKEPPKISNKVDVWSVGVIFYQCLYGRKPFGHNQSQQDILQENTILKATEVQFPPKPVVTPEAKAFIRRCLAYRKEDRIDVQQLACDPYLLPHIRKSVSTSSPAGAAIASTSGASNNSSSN
T6 sequence (P53671 whole entry): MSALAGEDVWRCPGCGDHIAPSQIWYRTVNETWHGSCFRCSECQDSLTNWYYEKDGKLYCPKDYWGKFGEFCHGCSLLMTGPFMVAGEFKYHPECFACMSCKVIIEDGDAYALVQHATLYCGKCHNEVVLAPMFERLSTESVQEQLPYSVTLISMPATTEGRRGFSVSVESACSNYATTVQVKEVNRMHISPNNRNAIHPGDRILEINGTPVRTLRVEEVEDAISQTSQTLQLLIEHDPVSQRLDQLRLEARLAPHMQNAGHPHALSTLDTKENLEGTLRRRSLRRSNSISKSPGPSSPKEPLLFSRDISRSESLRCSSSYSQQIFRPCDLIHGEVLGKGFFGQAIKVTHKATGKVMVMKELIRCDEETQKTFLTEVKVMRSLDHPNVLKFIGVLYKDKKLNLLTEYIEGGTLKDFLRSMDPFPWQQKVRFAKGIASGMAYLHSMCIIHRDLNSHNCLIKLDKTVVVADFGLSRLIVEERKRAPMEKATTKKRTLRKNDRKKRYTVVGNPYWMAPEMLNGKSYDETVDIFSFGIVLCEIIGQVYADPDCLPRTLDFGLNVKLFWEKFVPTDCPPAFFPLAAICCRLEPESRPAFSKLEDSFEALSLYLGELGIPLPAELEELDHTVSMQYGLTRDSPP
T2 sequence (P06241 whole entry): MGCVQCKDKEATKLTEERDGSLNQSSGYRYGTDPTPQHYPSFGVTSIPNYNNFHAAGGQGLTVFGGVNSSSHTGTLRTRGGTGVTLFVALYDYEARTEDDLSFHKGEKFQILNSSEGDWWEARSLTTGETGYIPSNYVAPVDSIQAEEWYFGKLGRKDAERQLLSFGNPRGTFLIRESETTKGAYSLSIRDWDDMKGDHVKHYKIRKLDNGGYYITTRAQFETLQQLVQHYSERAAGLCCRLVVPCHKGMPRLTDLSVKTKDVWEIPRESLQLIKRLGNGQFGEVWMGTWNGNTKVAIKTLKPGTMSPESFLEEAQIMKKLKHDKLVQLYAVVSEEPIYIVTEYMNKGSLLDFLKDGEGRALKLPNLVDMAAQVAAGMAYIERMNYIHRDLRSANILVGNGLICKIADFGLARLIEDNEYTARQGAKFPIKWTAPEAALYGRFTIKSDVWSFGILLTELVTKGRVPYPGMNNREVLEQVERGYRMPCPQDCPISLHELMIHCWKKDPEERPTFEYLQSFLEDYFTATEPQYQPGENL

Q: What does the source list for `CNC(=O)c1ccc2c(c1)C(=O)c1ccc(Nc3ccc(F)c(NC(=O)C4CC4)c3)cc1CC2` [Compound 2015]?
A: remaining activity at 0.2 µM (340 wild-type kinases [1]; 0.2 µM 2015, read-out: CDK1/CycA2 residual activity): 99.4%; remaining activity at 0.2 µM (340 wild-type kinases [1]; 0.2 µM 2015, read-out: CDK1/CycB1 residual activity): 92.8%; remaining activity at 0.2 µM (340 wild-type kinases [1]; 0.2 µM 2015, read-out: CDK1/CycE1 residual activity): 100%; remaining activity at 1 µM (340 wild-type kinases [1]; 1 µM 2015, read-out: CDK1/CycA2 residual activity): 101%; remaining activity at 1 µM (340 wild-type kinases [1]; 1 µM 2015, read-out: CDK1/CycB1 residual activity): 83.7%; remaining activity at 1 µM (340 wild-type kinases [1]; 1 µM 2015, read-out: CDK1/CycE1 residual activity): 90.1%; remaining activity at 0.2 µM (340 wild-type kinases [1]; CDK1/CycA2, 0.2 µM, read-out: residual activity): 99.3%; remaining activity at 1 µM (340 wild-type kinases [1]; CDK1/CycA2, 1 µM, read-out: residual activity): 101%; remaining activity at 0.2 µM (340 wild-type kinases [1]; CDK1/CycB1, 0.2 µM, read-out: residual activity): 92.8%; remaining activity at 1 µM (340 wild-type kinases [1]; CDK1/CycB1, 1 µM, read-out: residual activity): 83.7%; remaining activity at 0.2 µM (340 wild-type kinases [1]; CDK1/CycE1, 0.2 µM, read-out: residual activity): 100%; remaining activity at 1 µM (340 wild-type kinases [1]; CDK1/CycE1, 1 µM, read-out: residual activity): 90.1%; remaining activity at 0.2 µM (340 wild-type kinases [2]; 0.2 µM 2015, read-out: FYN residual activity): 119%; remaining activity at 1 µM (340 wild-type kinases [2]; 1 µM 2015, read-out: FYN residual activity): 101%; remaining activity at 0.2 µM (340 wild-type kinases [2]; FYN, 0.2 µM, read-out: residual activity): 119%; remaining activity at 1 µM (340 wild-type kinases [2]; FYN, 1 µM, read-out: residual activity): 101%; remaining activity at 0.2 µM (340 wild-type kinases [3]; 0.2 µM 2015, read-out: TLK2 residual activity): 147%; remaining activity at 1 µM (340 wild-type kinases [3]; 1 µM 2015, read-out: TLK2 residual activity): 124%; remaining activity at 0.2 µM (340 wild-type kinases [3]; TLK2, 0.2 µM, read-out: residual activity): 147%; remaining activity at 1 µM (340 wild-type kinases [3]; TLK2, 1 µM, read-out: residual activity): 124%; remaining activity at 1 µM (340 wild-type kinases [4]; 1 µM 2015, read-out: NEK1 residual activity): 81.3%; remaining activity at 1 µM (340 wild-type kinases [4]; NEK1, 1 µM, read-out: residual activity): 81.3%; remaining activity at 0.2 µM (340 wild-type kinases [4]; read-out: NEK1 residual activity): 86.5%; remaining activity at 0.2 µM (340 wild-type kinases [4]; read-out: residual activity): 86.5%; remaining activity at 0.2 µM (340 wild-type kinases [5]; 0.2 µM 2015, read-out: MUSK residual activity): 87.5%; remaining activity at 1 µM (340 wild-type kinases [5]; 1 µM 2015, read-out: MUSK residual activity): 87.3%; remaining activity at 0.2 µM (340 wild-type kinases [5]; MUSK, 0.2 µM, read-out: residual activity): 87.5%; remaining activity at 1 µM (340 wild-type kinases [5]; MUSK, 1 µM, read-out: residual activity): 87.3%; remaining activity at 0.2 µM (340 wild-type kinases [6]; 0.2 µM 2015, read-out: LIMK2 residual activity): 114%; remaining activity at 1 µM (340 wild-type kinases [6]; 1 µM 2015, read-out: LIMK2 residual activity): 103%; remaining activity at 0.2 µM (340 wild-type kinases [6]; LIMK2, 0.2 µM, read-out: residual activity): 114%; remaining activity at 1 µM (340 wild-type kinases [6]; LIMK2, 1 µM, read-out: residual activity): 103%; remaining activity at 0.2 µM (340 wild-type kinases [7]; 0.2 µM 2015, read-out: CK1alpha1 residual activity): 98.6%; remaining activity at 0.2 µM (340 wild-type kinases [7]; CK1alpha1, 0.2 µM, read-out: residual activity): 98.6%; remaining activity at 1 µM (340 wild-type kinases [7]; CK1alpha1, 1 µM, read-out: residual activity): 94.9%
